According to US9433596B2, “Pharmaceutical composition comprising N-acetyl-L-cysteine or its derivatives for treating anxiety disorder” (SNU R&DB FOUNDATION, priority 2010, dated 2016):

Experiments:
[1] = tested on: Sprague-Dawley Rats; test: Fear memory renewal test, NAC administered one day before the renewal test; type: in vivo; settings: NAC 200 mg/kg peritoneally on the 7th day after 4 days of extinction training, result on the 9th day after fear conditioning, vs control
Protocol: Sprague-Dawley Rats (8-9 weeks old, from Samtaco, Korea) were maintained with free access to water and food with 12 hour dark/light cycles (lights off at 09:00 hrs). Group of three to six animals were used for each experiment. (26 in total) For fear conditioning, the rats were presented with a tone (2.8 kHz, 85 dB) co-terminating with an electrical shock (1.0 mA, 1 s) three times at an interval of 100 sec. The rats were returned to the cage 1 minute after the last shock has been applied. Three days after the conditioning, the exposure therapy was done in a chamber distinct from the conditioning chamber for both extinction training and tone tests. 10 tones were presented at an interval of 100 sec without shocks, during which the freezing responses were measured to determine the reduction of fear memories. Unpaired, two-tailed T-test was used to analyze the results. The renewal test was done on day 12 after the conditioning was completed. The same chamber and place as it was used for the fear conditioning were used for the renewal. The rats with the extinction training were placed in the conditioning chamber and were left undisturbed for 10 minutes. Then the fear memory was recalled by presenting the rats with a tone for 30 sec. […] The freezing was defined as immobility except for respiratory movements and was quantified by trained observers who were blind to the experimental groups. […]

[2] = tested on: Sprague-Dawley Rats; test: Fear memory renewal test, NAC administered immediately before the renewal test; type: in vivo; settings: NAC 200 mg/kg peritoneally 2.5 hours before the renewal test on the 7th and 8th day, result on the 8th day after fear conditioning, vs control
Protocol: Sprague-Dawley Rats (8-9 weeks old, from Samtaco, Korea) were maintained with free access to water and food with 12 hour dark/light cycles (lights off at 09:00 hrs). Group of three to six animals were used for each experiment. (26 in total) For fear conditioning, the rats were presented with a tone (2.8 kHz, 85 dB) co-terminating with an electrical shock (1.0 mA, 1 s) three times at an interval of 100 sec. The rats were returned to the cage 1 minute after the last shock has been applied. Three days after the conditioning, the exposure therapy was done in a chamber distinct from the conditioning chamber for both extinction training and tone tests. 10 tones were presented at an interval of 100 sec without shocks, during which the freezing responses were measured to determine the reduction of fear memories. Unpaired, two-tailed T-test was used to analyze the results. The renewal test was done on day 12 after the conditioning was completed. The same chamber and place as it was used for the fear conditioning were used for the renewal. […] The fear memory recalled was determined by measuring the freezing response as described before (Kim et al., 2007, PNAS 104 (52): 20955-960). The freezing was defined as immobility except for respiratory movements and was quantified by trained observers who were blind to the experimental groups. […]

[3] = tested on: Sprague-Dawley Rats; test: Fear memory renewal test, NAC administered during extinction training (exposure therapy); type: in vivo; settings: NAC 200 mg/kg peritoneally once a day, days 3 to 5 after conditioning, 2.5 hours before exposure therapy, renewal tests on day 12 and day 21, vs saline control
Protocol: Sprague-Dawley Rats (8-9 weeks old, from Samtaco, Korea) were maintained with free access to water and food with 12 hour dark/light cycles (lights off at 09:00 hrs). Group of three to six animals were used for each experiment. (26 in total) For fear conditioning, the rats were presented with a tone (2.8 kHz, 85 dB) co-terminating with an electrical shock (1.0 mA, 1 s) three times at an interval of 100 sec. The rats were returned to the cage 1 minute after the last shock has been applied. Three days after the conditioning, the exposure therapy was done in a chamber distinct from the conditioning chamber for both extinction training and tone tests. 10 tones were presented at an interval of 100 sec without shocks, during which the freezing responses were measured to determine the reduction of fear memories. Unpaired, two-tailed T-test was used to analyze the results. […] The negative control was only received physiological saline. The renewal test was done on day 12 after the conditioning was completed. The same chamber and place as it was used for the fear conditioning were used for the renewal. […] The fear memory recalled was determined by measuring the freezing response as described before (Kim et al., 2007, PNAS 104 (52): 20955-960). The freezing was defined as immobility except for respiratory movements and was quantified by trained observers who were blind to the experimental groups. […]

[4] = cited from earlier work
[5] = general statement, no test described; cited from earlier work

For CC(=O)N[C@@H](CS)C(=O)O [NAC, N-acetyl-L-cysteine], the “renewal of the fear memory (freezing response)” value (“renewal … (freezing response)” for short) ([1]; FIG. 4) was “the renewal of the fear memory was blocked”, the “renewal … (freezing response)” value ([1]; FIG. 4, listed as N-Acetyl-L-cysteine) was “the return of fear-memories was prevented” and the “renewal … (freezing response)” value ([2]; FIG. 6) was “the renewal of the fear memory was blocked”. The “renewal … (freezing response)” value ([2]; FIG. 6, listed as N-Acetyl-L-cysteine) was “prevented the return of fear-memories”, the “renewal … (freezing response)” value ([3]; FIG. 2) was “the renewal of the fear memory was blocked” and the “renewal … (freezing response)” value ([3]; FIG. 2, listed as N-Acetyl-L-cysteine) was “the return of fear-memories was prevented and the effect was long-lasted”. For the same compound, the pKa [4] was 3.24 and the blood-brain barrier penetration [5] was “penetrate a blood-brain barrier”.
